From patent EP0430883A2, “Anthelmintical compounds” (CIBA-GEIGY AG, priority 1989, dated 1991)

Key:
[1] = system: Nematoden wie Haemonchus contortus und Trichostrongylus colubriformis; test: Test on sheep infected with nematodes (worm count at necropsy); format: in vivo, Schafe; conditions: single dose of 20 mg Wirksubstanz pro kg Körpergewicht, suspension by stomach tube or rumen injection, worms left in the gut counted 7-10 days after treatment vs untreated infected controls
From the text: 3.1. Versuch an mit Nematoden wie Haemonchus contortus und Trichostrongylus colubriformis infizierten Schafen
Der Wirkstoff wird in Form einer Suspension mit einer Magensonde oder durch Pansen-Injektion Schafen verabreicht, die vorher mit Nematoden wie Haemonchus contortus und Trichostrongylus colubriformis künstlich infiziert wurden. Pro Versuch resp. pro Dosis werden 1 bis 3 Tiere verwendet. Jedes Schaf wird mit nur einer einzigen Dosis behandelt.
Eine erste Evaluierung erfolgt dadurch, dass die Anzahl der vor und nach der Behandlung im Kot der Schafe ausgeschiedenen Wurmeier verglichen wird.
Sieben bis zehn Tage nach der Behandlung werden die Schafe getötet und seziert. Die Auswertung erfolgt durch Auszählung der nach der Behandlung im Darm zurückbleibenden Würmer. Gleichzeitig und gleichartig infizierte aber unbehandelte Schafe dienen als Kontrolle resp. Vergleich.
In diesem Test wird mit Verbindungen der Formeln I und la eine starke Reduzierung des Nematodenbefalls erzielt. So wird beispielsweise beim Einsatz von 20 mg Wirksubstanz pro kg Körpergewicht mit den nachfolgenden Verbindungen eine Reduzierung des Nematodenbefalls von ca. 90 % bewirkt: 1.1, 5.1 und 5.2. Dieses Ergebnis wird bei einzelnen Verbindungen auch noch mit weiter herabgesetzter Dosis, beispielsweise mit 10 mg Wirksubstanz pro kg Körpergewicht oder noch geringeren Mengen an Wirksubstanz, erreicht.

[2] = system: Cestoden wie Moniezia benedeni; test: Test on sheep infected with cestodes (worm count at necropsy); format: in vivo, Schafe; conditions: single dose of less than 20 mg/kg Körpergewicht, suspension by stomach tube or rumen injection, worms left in the gut counted 7-10 days after treatment vs untreated infected controls
From the text: 3.2. Versuch an mit Cestoden wie Moniezia benedeni infizierten Schafen
Der Wirkstoff wird in Form einer Suspension mit einer Magensonde oder durch Pansen-Injektion Schafen verabreicht, die vorher mit Cestoden wie Moniezia benedeni artifiziell infiziert wurden. Pro Versuch resp. pro Dosis werden 3 Tiere verwendet. Jedes Schaf wird mit nur einer einzigen Dosis behandelt.
Sieben bis zehn Tage nach der Behandlung werden die Schafe getötet und seziert. Die Auswertung erfolgt durch Auszählung der nach der Behandlung im Darm zurückbleibenden Würmer. Gleichzeitig und gleichartig infizierte aber unbehandelte Schafe dienen als Kontrolle resp. Vergleich. In diesem Versuch bewirken Wirkstoffe aus den Tabellen, wie beispielsweise die Verbindungen Nr. 1.1, 5.1 und 5.2. bei Dosen von weniger als 20 mg/kg Körpergewicht eine ca. 90%ige Reduktion des Cestodenbefalls.

Compound	Reduzierung des Nematodenbefalls [1]	Reduktion des Cestodenbefalls [2]
1,3-Dimethyl-5-[4-(5-oder 7-Chlor-6-fluor-benzthiazol-2-yloxy)-phenylcarbamoyl]-4,6-(1 H,3H,5H)-pyrimidindion [Verbindung 5.2]	ca. 90%	ca. 90%
Cn1c[n+](C)c(=O)c(C(=O)Nc2ccc(Oc3nc4ccc(OC(F)(F)F)cc4s3)cc2)c1[O-] [Verbindung 1.1, 1,3-Dimethyl-5-[4-(6-trifluormethoxy-benzthiazol-2-yloxy)-phenylcarbamoyl]-4(6)-oxo-6-(4)-oxido-(1H,5H)-pyrimidiniumbetain]	ca. 90%	ca. 90%
CN1CN(C)C(=O)C(C(=O)Nc2ccc(Oc3nc4ccc(OC(F)(F)F)cc4s3)cc2)C1=O [Verbindung 5.1, 1,3-Dimethyl-5-[4-(6-trifluormethoxy-benzthiazol-2-yloxy)-phenylcarbamoyl]-4,6-(1 H,3H,5H)-pyrimidindion]	ca. 90%	ca. 90%
